Test results from the kinase profiling compilation of Christmann-Franck et al. (2016).
Values belong to the compound of their own block, whether it stands above or below them.

Experiments:
Experiment in all cases: KINOMEscan competition binding
Settings in all cases: compound 10.0 µM
STK17A (human) = STK17A (human) (UniProt Q9UEE5)
BMP2K (human) = BMP2K (human) (UniProt Q9NSY1)
MINK1 (human) = MINK1 (human) (UniProt Q8N4C8)
MAPK15 (human) = MAPK15 (human) (UniProt Q8TD08)
MAP4K2 (human) = MAP4K2 (human) (UniProt Q12851)
PIM1 (human) = PIM1 (human) (UniProt P11309)
Sequence of PIM1 (human) (P11309 whole entry, looked up): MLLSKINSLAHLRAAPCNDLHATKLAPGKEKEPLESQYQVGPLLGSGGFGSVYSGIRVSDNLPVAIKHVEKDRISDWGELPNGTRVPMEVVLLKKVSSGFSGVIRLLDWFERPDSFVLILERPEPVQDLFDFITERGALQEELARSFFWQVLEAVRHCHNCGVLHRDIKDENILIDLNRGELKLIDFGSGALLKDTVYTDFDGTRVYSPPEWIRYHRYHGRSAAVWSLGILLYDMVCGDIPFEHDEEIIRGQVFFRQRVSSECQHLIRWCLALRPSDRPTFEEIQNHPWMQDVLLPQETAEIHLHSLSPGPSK

RPS6KA2 KD2 (human) = RPS6KA2 KD2 (human) (UniProt Q15349)
ACVR2B (human) = ACVR2B (human) (UniProt Q13705)
[1] = system: FLT3 (human), P36888 [N841I]
DCLK3 (human) = DCLK3 (human) (UniProt Q9C098)
MAP3K5 (human) = MAP3K5 (human) (UniProt Q99683)
Sequence of MAP3K5 (human) (Q99683 whole entry, looked up): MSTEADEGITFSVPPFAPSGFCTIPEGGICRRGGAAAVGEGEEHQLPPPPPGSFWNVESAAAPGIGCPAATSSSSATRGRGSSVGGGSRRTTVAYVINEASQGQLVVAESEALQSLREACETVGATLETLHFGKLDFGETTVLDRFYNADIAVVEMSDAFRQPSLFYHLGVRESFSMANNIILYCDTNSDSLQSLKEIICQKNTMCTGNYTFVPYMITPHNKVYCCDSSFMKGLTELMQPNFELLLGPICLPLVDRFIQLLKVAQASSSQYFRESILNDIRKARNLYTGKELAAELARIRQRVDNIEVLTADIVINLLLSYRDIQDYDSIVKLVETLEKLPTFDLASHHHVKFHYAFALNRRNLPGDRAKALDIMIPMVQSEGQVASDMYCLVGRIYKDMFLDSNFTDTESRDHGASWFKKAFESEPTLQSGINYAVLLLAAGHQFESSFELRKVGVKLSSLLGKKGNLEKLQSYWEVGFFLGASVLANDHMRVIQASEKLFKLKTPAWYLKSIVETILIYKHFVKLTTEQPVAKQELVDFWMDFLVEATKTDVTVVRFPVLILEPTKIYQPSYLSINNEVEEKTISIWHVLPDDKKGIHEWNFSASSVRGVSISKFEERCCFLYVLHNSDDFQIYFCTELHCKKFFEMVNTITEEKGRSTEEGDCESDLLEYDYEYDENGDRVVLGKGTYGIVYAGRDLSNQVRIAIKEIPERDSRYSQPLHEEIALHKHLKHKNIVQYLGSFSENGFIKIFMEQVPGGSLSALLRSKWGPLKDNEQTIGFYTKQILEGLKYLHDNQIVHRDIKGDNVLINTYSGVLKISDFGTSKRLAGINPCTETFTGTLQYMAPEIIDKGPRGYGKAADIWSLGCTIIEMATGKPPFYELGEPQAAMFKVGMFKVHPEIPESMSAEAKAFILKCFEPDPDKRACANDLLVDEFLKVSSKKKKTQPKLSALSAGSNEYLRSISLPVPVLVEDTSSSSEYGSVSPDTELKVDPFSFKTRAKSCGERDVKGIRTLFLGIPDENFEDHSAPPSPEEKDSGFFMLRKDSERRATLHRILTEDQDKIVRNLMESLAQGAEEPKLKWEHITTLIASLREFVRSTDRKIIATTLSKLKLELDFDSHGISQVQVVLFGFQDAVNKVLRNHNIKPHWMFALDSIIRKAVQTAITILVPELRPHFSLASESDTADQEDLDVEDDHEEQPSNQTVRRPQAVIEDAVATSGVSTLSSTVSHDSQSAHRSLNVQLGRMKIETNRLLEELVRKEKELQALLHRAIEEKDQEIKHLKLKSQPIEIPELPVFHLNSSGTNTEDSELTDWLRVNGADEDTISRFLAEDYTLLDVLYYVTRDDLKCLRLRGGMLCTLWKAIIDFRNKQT

PIM3 (human) = PIM3 (human) (UniProt Q86V86)
CIT (human) = CIT (human) (UniProt O14578)
Sequence of CIT (human) (O14578 whole entry, looked up): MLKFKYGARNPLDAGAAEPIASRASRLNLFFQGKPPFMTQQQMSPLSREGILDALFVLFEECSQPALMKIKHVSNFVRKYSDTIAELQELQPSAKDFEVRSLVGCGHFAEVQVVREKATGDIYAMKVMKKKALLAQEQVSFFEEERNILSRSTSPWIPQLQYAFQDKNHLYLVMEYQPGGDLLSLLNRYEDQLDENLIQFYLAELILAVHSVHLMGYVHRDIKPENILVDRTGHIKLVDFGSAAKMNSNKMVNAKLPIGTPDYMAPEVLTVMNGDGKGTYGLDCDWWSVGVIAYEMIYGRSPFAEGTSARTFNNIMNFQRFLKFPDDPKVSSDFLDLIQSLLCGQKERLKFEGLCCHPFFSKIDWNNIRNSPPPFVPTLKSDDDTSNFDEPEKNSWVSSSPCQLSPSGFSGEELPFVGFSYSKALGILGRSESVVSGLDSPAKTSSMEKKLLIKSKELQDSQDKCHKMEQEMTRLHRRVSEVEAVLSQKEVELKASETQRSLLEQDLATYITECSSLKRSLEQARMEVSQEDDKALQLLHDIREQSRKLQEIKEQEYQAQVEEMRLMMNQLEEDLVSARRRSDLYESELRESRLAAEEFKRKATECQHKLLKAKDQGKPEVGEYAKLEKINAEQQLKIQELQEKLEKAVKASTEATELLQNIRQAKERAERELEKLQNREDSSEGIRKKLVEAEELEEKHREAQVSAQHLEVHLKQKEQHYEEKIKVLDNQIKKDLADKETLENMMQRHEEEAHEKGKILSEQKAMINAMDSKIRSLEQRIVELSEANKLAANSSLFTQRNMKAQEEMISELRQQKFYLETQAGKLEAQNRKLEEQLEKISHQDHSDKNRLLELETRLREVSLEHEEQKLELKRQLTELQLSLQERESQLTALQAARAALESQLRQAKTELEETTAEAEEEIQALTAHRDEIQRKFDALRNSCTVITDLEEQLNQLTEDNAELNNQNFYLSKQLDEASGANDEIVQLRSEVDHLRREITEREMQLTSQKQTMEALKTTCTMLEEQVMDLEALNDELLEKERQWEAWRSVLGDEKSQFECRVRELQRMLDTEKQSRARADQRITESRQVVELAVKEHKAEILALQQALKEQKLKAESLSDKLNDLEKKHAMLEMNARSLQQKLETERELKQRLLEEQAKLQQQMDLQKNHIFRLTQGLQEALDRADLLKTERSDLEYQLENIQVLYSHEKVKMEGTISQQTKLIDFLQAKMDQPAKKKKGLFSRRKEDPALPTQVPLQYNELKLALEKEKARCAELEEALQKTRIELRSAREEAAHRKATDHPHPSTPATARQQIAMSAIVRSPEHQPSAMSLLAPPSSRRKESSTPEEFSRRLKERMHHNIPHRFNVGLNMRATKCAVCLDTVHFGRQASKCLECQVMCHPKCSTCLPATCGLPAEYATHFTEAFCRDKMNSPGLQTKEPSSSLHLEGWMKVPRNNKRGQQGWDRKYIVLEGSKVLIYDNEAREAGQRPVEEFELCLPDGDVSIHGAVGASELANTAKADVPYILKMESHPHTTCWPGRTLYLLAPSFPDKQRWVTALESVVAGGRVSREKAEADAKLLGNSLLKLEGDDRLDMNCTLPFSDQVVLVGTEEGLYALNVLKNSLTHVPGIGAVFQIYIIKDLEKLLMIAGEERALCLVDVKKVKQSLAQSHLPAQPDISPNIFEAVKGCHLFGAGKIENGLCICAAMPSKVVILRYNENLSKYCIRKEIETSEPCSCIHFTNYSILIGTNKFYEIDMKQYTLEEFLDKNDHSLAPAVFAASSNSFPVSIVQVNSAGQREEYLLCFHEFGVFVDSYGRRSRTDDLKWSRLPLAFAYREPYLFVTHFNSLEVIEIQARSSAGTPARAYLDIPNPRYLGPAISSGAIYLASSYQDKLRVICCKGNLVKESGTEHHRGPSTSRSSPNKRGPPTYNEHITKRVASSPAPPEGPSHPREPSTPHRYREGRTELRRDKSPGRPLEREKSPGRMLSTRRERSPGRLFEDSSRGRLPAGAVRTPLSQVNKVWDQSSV

STK17B (human) = STK17B (human) (UniProt O94768)
PLK4 (human) = PLK4 (human) (UniProt O00444)
AURKC (human) = AURKC (human) (UniProt Q9UQB9)
AURKB (human) = AURKB (human) (UniProt Q96GD4)
PIP4K2B (human) = PIP4K2B (human) (UniProt P78356)
RIOK1 (human) = RIOK1 (human) (UniProt Q9BRS2)
TAOK3 (human) = TAOK3 (human) (UniProt Q9H2K8)
CSNK2A1 (human) = CSNK2A1 (human) (UniProt P68400)
MYLK3 (human) = MYLK3 (human) (UniProt Q32MK0)
CDK16 (human) = CDK16 (human) (UniProt Q00536)
PHKG2 (human) = PHKG2 (human) (UniProt P15735)
ACVR2A (human) = ACVR2A (human) (UniProt P27037)
MYLK (human) = MYLK (human) (UniProt Q15746)
DMPK (human) = DMPK (human) (UniProt Q09013)
CDK7 (human) = CDK7 (human) (UniProt P50613)
Sequence of CDK7 (human) (P50613 whole entry, looked up): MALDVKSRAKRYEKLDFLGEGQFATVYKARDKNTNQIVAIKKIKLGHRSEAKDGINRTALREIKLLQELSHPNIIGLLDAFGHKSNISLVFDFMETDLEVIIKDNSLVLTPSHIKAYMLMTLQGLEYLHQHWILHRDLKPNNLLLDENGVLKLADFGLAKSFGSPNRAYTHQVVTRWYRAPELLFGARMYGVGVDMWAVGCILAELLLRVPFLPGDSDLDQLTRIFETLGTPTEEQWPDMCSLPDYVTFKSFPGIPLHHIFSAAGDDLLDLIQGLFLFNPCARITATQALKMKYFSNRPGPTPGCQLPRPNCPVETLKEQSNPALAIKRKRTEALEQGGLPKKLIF

CSNK1D (human) = CSNK1D (human) (UniProt P48730)
CSNK1G1 (human) = CSNK1G1 (human) (UniProt Q9HCP0)
AAK1 (human) = AAK1 (human) (UniProt Q2M2I8)
GSK3A (human) = GSK3A (human) (UniProt P49840)
NEK2 (human) = NEK2 (human) (UniProt P51955)
[2] = system: KIT (human), P10721 [D816V]
MAP3K7 (human) = MAP3K7 (human) (UniProt O43318)
PIK3CG (human) = PIK3CG (human) (UniProt P48736)
BRSK2 (human) = BRSK2 (human) (UniProt Q8IWQ3)
[3] = system: EIF2AK4 KD2 (human), Q9P2K8 [S808G]
CSNK2A2 (human) = CSNK2A2 (human) (UniProt P19784)
RPS6KA5 KD2 (human) = RPS6KA5 KD2 (human) (UniProt O75582)
PIP5K1A (human) = PIP5K1A (human) (UniProt Q99755)
MKNK2 (human) = MKNK2 (human) (UniProt Q9HBH9)

Sequence of MAPK15 (human) (Q8TD08 whole entry, looked up): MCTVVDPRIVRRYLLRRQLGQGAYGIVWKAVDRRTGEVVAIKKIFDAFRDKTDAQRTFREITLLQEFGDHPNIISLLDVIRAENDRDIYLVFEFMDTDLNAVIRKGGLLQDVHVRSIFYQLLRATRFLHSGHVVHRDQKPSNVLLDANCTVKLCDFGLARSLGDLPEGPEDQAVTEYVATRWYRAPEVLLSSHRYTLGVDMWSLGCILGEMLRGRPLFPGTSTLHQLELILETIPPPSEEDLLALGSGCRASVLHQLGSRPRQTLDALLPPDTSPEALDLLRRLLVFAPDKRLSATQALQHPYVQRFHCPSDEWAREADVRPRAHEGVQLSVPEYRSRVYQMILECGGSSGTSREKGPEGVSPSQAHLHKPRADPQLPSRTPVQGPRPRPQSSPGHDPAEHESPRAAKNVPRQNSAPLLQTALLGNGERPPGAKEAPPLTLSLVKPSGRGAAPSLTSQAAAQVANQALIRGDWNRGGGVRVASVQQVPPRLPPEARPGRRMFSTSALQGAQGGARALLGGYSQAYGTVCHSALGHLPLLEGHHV
Sequence of STK17A (human) (Q9UEE5 whole entry, looked up): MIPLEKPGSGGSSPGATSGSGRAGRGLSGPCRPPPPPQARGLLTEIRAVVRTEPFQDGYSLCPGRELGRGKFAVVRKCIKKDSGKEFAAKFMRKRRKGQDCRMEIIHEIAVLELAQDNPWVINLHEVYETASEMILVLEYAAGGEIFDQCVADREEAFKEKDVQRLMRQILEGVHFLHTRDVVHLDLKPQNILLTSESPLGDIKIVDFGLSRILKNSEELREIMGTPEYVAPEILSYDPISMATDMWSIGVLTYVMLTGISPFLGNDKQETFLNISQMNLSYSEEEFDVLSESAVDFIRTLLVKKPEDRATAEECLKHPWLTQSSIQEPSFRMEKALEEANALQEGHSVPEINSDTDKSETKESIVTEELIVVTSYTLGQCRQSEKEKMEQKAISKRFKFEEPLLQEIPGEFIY

- kinase still bound, per cent of control (STK17A (human)): 100%
- kinase still bound, per cent of control (BMP2K (human)): 100%
- kinase still bound, per cent of control (MINK1 (human)): 100%
- kinase still bound, per cent of control (MAP4K2 (human)): 100%
- kinase still bound, per cent of control (PIM1 (human)): 100%
- kinase still bound, per cent of control (RPS6KA2 KD2 (human)): 64%
- kinase still bound, per cent of control (ACVR2B (human)): 100%
- kinase still bound, per cent of control [1]: 78%
- kinase still bound, per cent of control (DCLK3 (human)): 100%
- kinase still bound, per cent of control (MAP3K5 (human)): 94%
- kinase still bound, per cent of control (PIM3 (human)): 100%
- kinase still bound, per cent of control (CIT (human)): 100%
- kinase still bound, per cent of control (STK17B (human)): 100%
- kinase still bound, per cent of control (PLK4 (human)): 84%
- kinase still bound, per cent of control (AURKC (human)): 99%
- kinase still bound, per cent of control (AURKB (human)): 74%
- kinase still bound, per cent of control (PIP4K2B (human)): 100%
- kinase still bound, per cent of control (RIOK1 (human)): 80%
- kinase still bound, per cent of control (TAOK3 (human)): 92%
- kinase still bound, per cent of control (CSNK2A1 (human)): 100%
- kinase still bound, per cent of control (MYLK3 (human)): 100%
- kinase still bound, per cent of control (CDK16 (human)): 100%
- kinase still bound, per cent of control (PHKG2 (human)): 90%
- kinase still bound, per cent of control (ACVR2A (human)): 100%
- kinase still bound, per cent of control (MYLK (human)): 92%
- kinase still bound, per cent of control (DMPK (human)): 100%
- kinase still bound, per cent of control (CDK7 (human)): 74%
- kinase still bound, per cent of control (CSNK1D (human)): 85%
- kinase still bound, per cent of control (CSNK1G1 (human)): 100%
- kinase still bound, per cent of control (AAK1 (human)): 100%
- kinase still bound, per cent of control (GSK3A (human)): 100%
- kinase still bound, per cent of control (NEK2 (human)): 100%
- kinase still bound, per cent of control [2]: 100%
- kinase still bound, per cent of control (MAP3K7 (human)): 89%
- kinase still bound, per cent of control (PIK3CG (human)): 70%
- kinase still bound, per cent of control (BRSK2 (human)): 100%
- kinase still bound, per cent of control [3]: 100%
- kinase still bound, per cent of control (CSNK2A2 (human)): 78%
- kinase still bound, per cent of control (RPS6KA5 KD2 (human)): 100%
- kinase still bound, per cent of control (PIP5K1A (human)): 99%
- kinase still bound, per cent of control (MKNK2 (human)): 66%
Structure (SMILES): CN1CCN(c2ccc(C(=O)Nc3ncc4c(n3)N(C)c3ccccc3C(=O)N4C)cc2)CC1
- kinase still bound, per cent of control (MAPK15 (human)): 100%

- kinase still bound, per cent of control (STK17A (human)): 100%
- kinase still bound, per cent of control (BMP2K (human)): 43%
- kinase still bound, per cent of control (MINK1 (human)): 100%
- kinase still bound, per cent of control (MAP4K2 (human)): 80%
- kinase still bound, per cent of control (PIM1 (human)): 91%
- kinase still bound, per cent of control (RPS6KA2 KD2 (human)): 91%
- kinase still bound, per cent of control (ACVR2B (human)): 45%
- kinase still bound, per cent of control [1]: 80%
- kinase still bound, per cent of control (DCLK3 (human)): 68%
- kinase still bound, per cent of control (MAP3K5 (human)): 100%
- kinase still bound, per cent of control (PIM3 (human)): 100%
- kinase still bound, per cent of control (CIT (human)): 95%
- kinase still bound, per cent of control (STK17B (human)): 79%
- kinase still bound, per cent of control (PLK4 (human)): 1.8%
- kinase still bound, per cent of control (AURKC (human)): 22%
- kinase still bound, per cent of control (AURKB (human)): 1.4%
- kinase still bound, per cent of control (PIP4K2B (human)): 75%
- kinase still bound, per cent of control (RIOK1 (human)): 90%
- kinase still bound, per cent of control (TAOK3 (human)): 1.2%
- kinase still bound, per cent of control (CSNK2A1 (human)): 86%
- kinase still bound, per cent of control (MYLK3 (human)): 100%
- kinase still bound, per cent of control (CDK16 (human)): 100%
- kinase still bound, per cent of control (PHKG2 (human)): 100%
- kinase still bound, per cent of control (ACVR2A (human)): 90%
- kinase still bound, per cent of control (MYLK (human)): 63%
- kinase still bound, per cent of control (DMPK (human)): 100%
- kinase still bound, per cent of control (CDK7 (human)): 60%
- kinase still bound, per cent of control (CSNK1D (human)): 77%
- kinase still bound, per cent of control (CSNK1G1 (human)): 73%
- kinase still bound, per cent of control (AAK1 (human)): 62%
- kinase still bound, per cent of control (GSK3A (human)): 100%
- kinase still bound, per cent of control (NEK2 (human)): 100%
- kinase still bound, per cent of control [2]: 69%
- kinase still bound, per cent of control (MAP3K7 (human)): 58%
- kinase still bound, per cent of control (PIK3CG (human)): 4.2%
- kinase still bound, per cent of control (BRSK2 (human)): 48%
- kinase still bound, per cent of control [3]: 98%
- kinase still bound, per cent of control (CSNK2A2 (human)): 58%
- kinase still bound, per cent of control (RPS6KA5 KD2 (human)): 100%
- kinase still bound, per cent of control (PIP5K1A (human)): 100%
- kinase still bound, per cent of control (MKNK2 (human)): 8.4%
Structure (SMILES): CN1C(=O)c2ccccc2N(C)c2nc(Nc3ccc(N4CCC(O)CC4)cc3)ncc21
- kinase still bound, per cent of control (MAPK15 (human)): 100%
